Measured values from US8742110B2, “Spiroxazolidinone compounds” (Merck Sharp & Dohme Corp., priority 2010, dated 2014).
pIC50: −log10 of the molar value. Structures can show the parent of a compound that is named as a salt.

Target: SSTR5 (Homo sapiens (Human), UniProt P35346)
Assay: SSTR5 binding assay
Settings: CHO-K1 membranes expressing cloned human SSTR5
In short: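 Competition binding on membranes from CHO-K1 cells stably expressing cloned human receptor, using radiolabeled somatostatin in 50 mM Tris-HCl pH 7.8 with EGTA, MgCl2 and protease inhibitors. Unlabeled compounds tested from 0.01 nM to 10,000 nM.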

Sequence of SSTR5 (P35346 whole entry): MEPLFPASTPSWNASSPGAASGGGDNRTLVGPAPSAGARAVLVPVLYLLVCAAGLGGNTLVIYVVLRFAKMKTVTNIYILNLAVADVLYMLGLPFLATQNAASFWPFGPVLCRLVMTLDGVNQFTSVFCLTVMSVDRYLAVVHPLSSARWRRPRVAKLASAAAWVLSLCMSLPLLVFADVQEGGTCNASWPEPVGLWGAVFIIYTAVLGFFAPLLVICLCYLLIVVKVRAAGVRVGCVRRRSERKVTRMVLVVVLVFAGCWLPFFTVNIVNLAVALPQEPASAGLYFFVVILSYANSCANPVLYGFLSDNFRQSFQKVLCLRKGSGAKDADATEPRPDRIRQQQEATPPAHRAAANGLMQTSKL

pIC50 | Structure (SMILES)
8.87 | COc1ccc(-c2nc(C3CCCCC3)sc2CN2CCC3(CC2)CN(c2ccc(C(=O)O)cc2)C(=O)O3)cc1 [Example 6-28, 4-(8-{[2-Cyclohexyl-4-(4-methoxyphenyl)-1,3-thiazol-5-yl]methyl}-2-oxo-1-oxa-3,8-diazaspiro[4.5]dec-3-yl)benzoic acid, TFA salt]
5.99 | Cc1nc2ccccn2c1CN1CCC2(CC1)CN(c1ccc(C(=O)O)cc1)C(=O)O2 [Example 6-38, 4-{8-[(2-Methylimidazo[1,2-a]pyridin-3-yl)methyl]-2-oxo-1-oxa-3,8-diazaspiro[4.5]dec-3-yl}benzoic acid, TFA salt]
8.76 | CC(C)(C)c1nc(-c2cc(F)c(F)cc2F)c(CN2CCC3(CC2)CN(c2ccc(C(=O)O)cc2)C(=O)O3)s1 [Example 6-35, 4-(8-{[2-tert-Butyl-4-(2,4,5-trifluorophenyl)-1,3-thiazol-5-yl]methyl}-2-oxo-1-oxa-3,8-diazaspiro[4.5]dec-3-yl)benzoic acid, TFA salt]
5.93 | O=C(O)c1ccc(N2CC3(CCN(Cc4n[nH]c5ccc(F)cc45)CC3)OC2=O)cc1 [Example 6-1, 4-{8-[(5-Fluoro-1H-indazol-3-yl)methyl]-2-oxo-1-oxa-3,8-diazaspiro[4.5]dec-3-yl}benzoic acid, TFA salt]
5.76 | COc1ccc2c(CN3CCC4(CC3)CN(c3ccc(C(=O)O)cc3)C(=O)O4)n[nH]c2c1 [Example 6-2, 4-{8-[(6-Methoxy-1H-indazol-3-yl)methyl]-2-oxo-1-oxa-3,8-diazaspiro[4.5]dec-3-yl}benzoic acid, TFA salt]
7.07 | O=C(O)c1ccc(N2CC3(CCN(Cc4nc(-c5ccccc5)oc4-c4ccccc4)CC3)OC2=O)cc1 [Example 6-34, 4-{8-[(2,5-Diphenyl-1,3-oxazol-4-yl)methyl]-2-oxo-1-oxa-3,8-diazaspiro[4.5]dec-3-yl}benzoic acid, TFA salt]
7.21 | CC(C)(C)n1nc(CN2CCC3(CC2)CN(c2ccc(C(=O)O)cc2)C(=O)O3)c2cc(Cl)c(F)cc21 [Example 6-17, 4-{8-[(1-tert-Butyl-5-chloro-6-fluoro-1H-indazol-3-yl)methyl]-2-oxo-1-oxa-3,8-diazaspiro[4.5]dec-3-yl}benzoic acid, TFA salt]
9.47 | CC(C)n1cc(CN2CCC3(CC2)CN(c2ccc(C(=O)O)cc2)C(=O)O3)c2cc(-c3ccc(F)c(F)c3F)ccc21 [Example 6-24, TFA salt]
6.86 | CC(C)(C)Cn1nc(CN2CCC3(CC2)CN(c2ccc(C(=O)O)cc2)C(=O)O3)c2cc(F)ccc21 [Example 6-10, 4-(8-{[1-(2,2-Dimethylpropyl)-5-fluoro-1H-indazol-3-yl]methyl}-2-oxo-1-oxa-3,8-diazaspiro[4.5]dec-3-yl)benzoic acid, TFA salt]

Continued, compound first:

Structure (SMILES) | pIC50
CCOc1cc(CN2CCC3(CC2)CN(c2ccc(C(=O)O)cc2)C(=O)O3)cc2cnc(C(F)(F)F)cc12 [Example 5-8, 4-(8-{[5-Ethoxy-3-(trifluoromethyl)isoquinolin-7-yl]methyl}-2-oxo-1-oxa-3,8-diazaspiro[4.5]dec-3-yl)benzoic acid, TFA salt] | 9.37
CC(C)n1nc(Cc2cc(F)c(F)cc2F)c(CN2CCC3(CC2)CN(c2ccc(C(=O)O)cc2)C(=O)O3)c1Cl [Example 1-45, 4-(8-{[5-Chloro-1-(propan-2-yl)-3-(2,4,5-trifluorobenzyl)-1H-pyrazol-4-yl]methyl}-2-oxo-1-oxa-3,8-diazaspiro[4.5]dec-3-yl)benzoic acid, TFA salt] | 7.64
CC(C)(C)n1cc(CN2CCC3(CC2)CN(c2ccc(C(=O)O)c(Cl)c2)C(=O)O3)c(-c2cc(F)c(Cl)cc2F)n1 [Example 1-13, 4-(8-{[1-tert-Butyl-3-(4-chloro-2,5-difluorophenyl)-1H-pyrazol-4-yl]methyl}-2-oxo-1-oxa-3,8-diazaspiro[4.5]dec-3-yl)-2-chlorobenzoic acid, TFA salt] | 8.39
COc1ccc(-c2nn(C(C)(C)C)cc2CN2CCCC3(CC2)CN(c2ccc(C(=O)O)cc2)C(=O)O3)cc1 (centres unmarked) [Example 2-14, 4-(8-{[1-tert-Butyl-3-(4-methoxyphenyl)-1H-pyrazol-4-yl]methyl}-2-oxo-1-oxa-3,8-diazaspiro[4.6]undec-3-yl)benzoic acid, TFA salt] | 7.57
O=C(O)c1ccc(N2CC3(CCN(Cc4cn(C5CCCCC5)nc4-c4ccc(C(F)(F)F)cc4)CC3)OC2=O)cc1 [Example 1-24, 4-[8-({1-Cyclohexyl-3-[4-(trifluoromethyl)phenyl]-1H-pyrazol-4-yl}methyl)-2-oxo-1-oxa-3,8-diazaspiro[4.5]dec-3-yl]benzoic acid, TFA salt] | 8.70
CC1(C)CCOc2c(Cl)cc(CN3CCC4(CC3)CN(c3ccc(C(=O)O)cc3)C(=O)O4)cc21 [Example 5-15, 4-{8-[(8-Chloro-4,4-dimethyl-3,4-dihydro-2H-chromen-6-yl)methyl]-2-oxo-1-oxa-3,8-diazaspiro[4.5]dec-3-yl}benzoic acid, TFA salt] | 8.90
CCOc1cc(CN2CCC3(CC2)CN(c2ccc(C(=O)O)cc2Cl)C(=O)O3)cc(OCC)c1-c1ccc(F)cc1 [Example 3-19, 3-Chloro-4-{8-[(2,6-diethoxy-4′-fluorobiphenyl-4-yl)methyl]-2-oxo-1-oxa-3,8-diazaspiro[4.5]dec-3-yl}benzoic acid, TFA salt] | 9.44
CC(C)Oc1ccc(-c2cc(F)c(F)cc2F)c(CN2CCC3(CC2)CN(c2ccc(C(=O)O)cc2)C(=O)O3)c1 [Example 4-16, 4-(2-Oxo-8-{[2′,4′,5′-trifluoro-4-(propan-2-yloxy)biphenyl-2-yl]methyl}-1-oxa-3,8-diazaspiro[4.5]dec-3-yl)benzoic acid, TFA salt] | 9.57
CC(C)(C)n1cc(CN2CCC3(CC2)CN(c2ccc(C(=O)O)cn2)C(=O)O3)c(-c2ccc(F)c(F)c2F)n1 [Example 1-43, 6-(8-{[1-tert-Butyl-3-(2,3,4-trifluorophenyl)-1H-pyrazol-4-yl]methyl}-2-oxo-1-oxa-3,8-diazaspiro[4.5]dec-3-yl)pyridine-3-carboxylic acid, TFA salt] | 8.54
CCOc1ccc(-c2ccc(F)c(F)c2)c(CN2CCCC3(CC2)CN(c2ccc(C(=O)O)cc2)C(=O)O3)c1 (centres unmarked) [Example 2-13, 4-{8-[(4-Ethoxy-3′,4′-difluorobiphenyl-2-yl)methyl]-2-oxo-1-oxa-3,8-diazaspiro[4.6]undec-3-yl}benzoic acid, TFA salt] | 7.58
CCOc1cc(CN2CCC3(CC2)CN(c2ccc(C(=O)O)cc2Cl)C(=O)O3)c(-c2ccc(F)c(F)c2F)cc1C [Example 4-22, 3-Chloro-4-{8-[(4-ethoxy-2′,3′,4′-trifluoro-5-methylbiphenyl-2-yl)methyl]-2-oxo-1-oxa-3,8-diazaspiro[4.5]dec-3-yl}benzoic acid, TFA salt] | 9.33
O=C(O)c1ccc(N2CC3(CCN(Cc4nn(Cc5ccc(Cl)cc5)cc4-c4ccc(F)c(F)c4F)CC3)OC2=O)cc1 [Example 2-3, 4-(8-{[1-(4-Chlorobenzyl)-4-(2,3,4-trifluorophenyl)-1H-pyrazol-3-yl]methyl}-2-oxo-1-oxa-3,8-diazaspiro[4.5]dec-3-yl)benzoic acid, TFA salt] | 7.05
CCOc1cc(CN2CCC3(CC2)CN(c2ccc(C(=O)O)cc2)C(=O)O3)cc2c(OCC)cccc12 [Example 5-3, 4-{8-[(4,8-Diethoxynaphthalen-2-yl)methyl]-2-oxo-1-oxa-3,8-diazaspiro[4.5]dec-3-yl}benzoic acid, TFA salt] | 9.01
O=C(O)c1ccc(N2CC3(CCN(Cc4cn(-c5ccccc5)nc4-c4ccc(F)c(Cl)c4)CC3)OC2=O)cc1 [Example 1-34, 4-(8-{[3-(3-Chloro-4-fluorophenyl)-1-phenyl-1H-pyrazol-4-yl]methyl}-2-oxo-1-oxa-3,8-diazaspiro[4.5]dec-3-yl)benzoic acid, TFA salt] | 8.33
CC(C)(C)n1cc(CN2CCCC3(CC2)CN(c2ccc(C(=O)O)cc2)C(=O)O3)c(-c2ccc(F)c(F)c2F)n1 (centres unmarked) [Example 2-11, 4-(8-{[1-tert-Butyl-3-(2,3,4-trifluorophenyl)-1H-pyrazol-4-yl]methyl}-2-oxo-1-oxa-3,8-diazaspiro[4.6]undec-3-yl)benzoic acid, TFA salt] | 6.68
CCOc1ccc(-c2ccc(F)c(F)c2F)c(CN2CCC3(CC2)CN(c2ccc(C(=O)O)c(C)c2)C(=O)O3)c1 [Example 4-13, 4-{8-[(4-Ethoxy-2′,3′,4′-trifluorobiphenyl-2-yl)methyl]-2-oxo-1-oxa-3,8-diazaspiro[4.5]dec-3-yl}-2-methylbenzoic acid, TFA salt] | 9.01
CC1(C)C2CCC(C2)C1n1cc(CN2CCC3(CC2)CN(c2ccc(C(=O)O)cc2)C(=O)O3)c(-c2ccc(F)c(F)c2F)n1 (centres unmarked) [Example 1-25, 4-(8-{[1-(3,3-Dimethylbicyclo[2.2.1]hept-2-yl)-3-(2,3,4-trifluorophenyl)-1H-pyrazol-4-yl]methyl}-2-oxo-1-oxa-3,8-diazaspiro[4.5]dec-3-yl)benzoic acid, TFA salt] | 9.13
O=C(O)c1ccc(N2CC3(CCN(Cc4cn(-c5ccccc5)nc4-c4ccc(OC(F)(F)F)cc4)CC3)OC2=O)cc1 [Example 1-27, 4-[2-Oxo-8-({1-phenyl-3-[4-(trifluoromethoxy)phenyl]-1H-pyrazol-4-yl}methyl)-1-oxa-3,8-diazaspiro[4.5]dec-3-yl]benzoic acid, TFA salt] | 7.89
Cc1cc(CN2CCC3(CC2)CN(c2ccc(C(=O)O)cc2)C(=O)O3)cc2c1OCCC2C (centres unmarked) [Example 5-16, 4-{8-[(4,8-Dimethyl-3,4-dihydro-2H-chromen-6-yl)methyl]-2-oxo-1-oxa-3,8-diazaspiro[4.5]dec-3-yl}benzoic acid, TFA salt] | 8.74

Same assay, conditions: CHO-K1 membranes expressing cloned human SSTR5; TFA salt

pIC50 | Structure (SMILES)
8.33 | COc1ccccc1-c1nn(C(C)(C)C)cc1CN1CCC2(CC1)CN(c1ccc(C(=O)O)cc1)C(=O)O2 [Example 1-14, 4-(8-{[1-tert-butyl-3-(2-Methoxyphenyl)-1H-pyrazol-4-yl]methyl}-2-oxo-1-oxa-3,8-diazaspiro[4.5]dec-3-yl)benzoic acid, TFA salt]
